In paper PMC9181982, “Biphenyl Ether Analogs Containing Pomalidomide as Small-Molecule Inhibitors of the Programmed Cell Death-1/Programmed Cell Death-Ligand 1 Interaction” (Molecules, 2022):

Legend:
PD-1/PD-L1 complex = target: T1, PD-1/PD-L1 complex (Homo sapiens, UniProt Q9NZQ7); assay: HTRF (homogeneous time-resolved fluorescence) PD-1/PD-L1 binding assay (Cis-Bio); settings: for HTRF: Percentage of the Dissociated PD-1/PD-L1 Complex, 0.5 µM Ligand Conc. / HTRF: Percentage of the Dissociated PD-1/PD-L1 Complex, 5 µM Ligand Conc. / inhibition at 0.5 µM / inhibition at 5 µM: 5 nM hPD-L1, 50 nM hPD-1; for HTRF: Percentage of the Dissociated PD-1/PD-L1 Complex, 0.5 µM Ligand Conc. / inhibition at 0.5 µM: 0.5 µM ligand; for inhibition at 0.5 µM: read-out: HTRF: Percentage of the Dissociated PD-1/PD-L1 Complex, 0.5 µM Ligand Conc.; for HTRF: Percentage of the Dissociated PD-1/PD-L1 Complex, 5 µM Ligand Conc. / inhibition at 5 µM: 5 µM ligand; for inhibition at 5 µM: read-out: HTRF: Percentage of the Dissociated PD-1/PD-L1 Complex, 5 µM Ligand Conc.
T1 construct: purchased Cis-Bio
T1 sequence (Q9NZQ7 19-238 limits assumed, one chain of several): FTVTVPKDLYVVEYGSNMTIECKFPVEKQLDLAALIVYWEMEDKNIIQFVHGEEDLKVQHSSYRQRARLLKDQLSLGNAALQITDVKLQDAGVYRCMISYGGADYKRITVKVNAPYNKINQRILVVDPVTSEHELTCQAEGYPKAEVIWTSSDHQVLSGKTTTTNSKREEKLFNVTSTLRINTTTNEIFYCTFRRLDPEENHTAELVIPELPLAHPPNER
Method: To validate the activity toward PD-L1 of our compounds, we carried out an HTRF (homogeneous time-resolved fluorescence) experiment at two concentrations of the ligand (5 µM and 0.5 µM) (Table 1).
HTRF was carried out using a certified Cis-Bio assay according to the manufacturer’s guidelines. The experiments were carried out at 5 nM of h-L1 and 50 nM of hPD-1 in the final formulation at the 20 µL final volume in the well. To determine the half maximal inhibitory concentrations (IC50) of the tested compounds, the measurements were carried out on two individual dilution series unless stated otherwise. After mixing all the components according to the Cis-Bio protocol, the plate was left for 2 h incubation at room temperature followed by the TR-FRET measurement on a Tecan Spark 20M. […] The collected data was background-subtracted from the negative control, normalized on the positive control, averaged, and fitted with the normalized Hill’s equation to determine the IC50 value using Mathematica 12 (Princeton, NJ, USA).

PD-L1 protein = target: T2, PD-L1 protein (Homo sapiens, UniProt Q9NZQ7); assay: 1H NMR binding analysis, PD-L1 protein titrated with ligand; settings: 1H NMR titration; compound 6 at protein–ligand ratio 1:10
T2 construct: PD-L1 gene (amino acids 18–239); made in house; host or cells: E. coli BL21
T2 sequence (Q9NZQ7 18-239): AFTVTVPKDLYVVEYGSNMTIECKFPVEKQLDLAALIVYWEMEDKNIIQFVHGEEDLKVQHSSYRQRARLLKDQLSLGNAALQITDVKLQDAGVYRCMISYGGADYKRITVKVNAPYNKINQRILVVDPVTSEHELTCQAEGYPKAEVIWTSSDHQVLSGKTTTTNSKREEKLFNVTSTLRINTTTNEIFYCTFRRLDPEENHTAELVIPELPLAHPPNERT
Method: Apart from the HTRF assay, we performed the NMR [33, 34] binding analysis by recording the ^1H spectrum of the PD-L1 protein titrated with compound 4 (Figure 1).
The E. coli strain BL21 was transformed with a pET-21b plasmid carrying the PD-L1 gene (amino acids 18–239). The bacteria were cultured in LB at 37 °C until OD600nm of 0, 6 when the recombinant protein production was induced with 1 mM IPTG. The protein production continued overnight. The inclusion bodies were collected by centrifugation, washed twice with 50 mM Tris HCl, pH 8.0, containing 200 mM NaCl, 10 mM EDTA, 10 mM 2-mercaptoethanol, and 0.5% Triton X-100, followed by a single wash with the same buffer but with no Triton X-100. The washed inclusion bodies were resuspended overnight in 50 mM Tris HCl, pH 8.0, 6 M GuHCl, 200 mM NaCl, and 10 mM 2-mercaptoethanol and clarified with centrifugation. Refolding of PD-L1 was performed by dropwise dilution into 0.1 M Tris HCl, pH 8.0, containing 1 M L-arginine hydrochloride, 0.25 mM oxidized glutathione, and 0.25 mM reduced glutathione. The refolded protein was dialyzed three times against 10 mM Tris HCl, pH 8.0, containing 20 mM NaCl and purified by size exclusion chromatography using Superdex 75 and a dialysis buffer. The quality of the refolded protein was evaluated by SDS-PAGE and NMR.
NMR spectra were recorded in PBS, pH 7.4, containing 10% (v/v) of D2O added to the samples to provide the lock signal. Water suppression was carried out using the WATERGATE sequence. All the spectra were recorded at 300 K using a Bruker Avance 600 MHz spectrometer with the Cryo-Platform. The NMR spectrum was recorded at three different ligand/protein ratios from 0 to 10. The samples were prepared by adding small amounts of a 50 mM ligand stock solution in DMSO to the protein solution (0.20 mL) of the PD-L1 fragment at a concentration of 0.14 mM. The acquisition parameters for each spectrum were as follows: size of FID32768, number of scans: 32. The spectra were visualized using TopSpin 4.0.2. (Bruker, Billerica, MA, USA)

[1] = system: PD-1/PD-L1 blockade, Jurkat effector cells / CHO/TCRAct/PD-L1 cells; assay: Immune checkpoint blockade (ICB) assay (Promega): Jurkat ECs co-cultured with CHO/TCRAct/PD-L1 cells, NFAT luciferase readout; type: cell-based, human; settings: for Promega Assay (active / not active): cell-based PD-1/PD-L1 blockade bioassay
Method: In order to explore the bioactivity of the synthesized compounds, a well-recognized immune checkpoint blockade (ICB) assay was performed. In the assay, artificial T cells, the Jurkat effector cells (Jurkat ECs), i.e., the Jurkat T cells overexpressing PD-1 and luciferase-coding gene under the control of the TCR-inducible NFAT response element, are contacted with artificial antigen-presenting CHO/TCRAct/PD-L1 cells, as illustrated in [31]. The latter is the CHO cells equipped with the TCR activator molecule, which delivers activation of Jurkat ECs, and also the PD-L1 protein, which provides a negative signal towards the activation of Jurkat ECs. Upon the blockade of the PD-1/PD-L1 interaction, activation of Jurkat ECs is increased, as we have shown before for several classes of therapeutic antibodies and small molecules.
The human PD-L1-expressing CHO-K1 cells overexpressing TCR activator (CHO/TCRAct/PD-L1) cells and Jurkat ECs T cells overexpressing PD-1 and carrying a luciferase reporter gene under the control of the Nuclear Factor of Activated T cells Response Element (NFAT-RE) were obtained from Promega and cultured in an RPMI-1640 medium (Biowest, Nuaillé, France) supplemented with 10% fetal bovine serum (FBS, Biowest, Nuaillé, France) and […] L-glutamine (Biowest, Nuaillé, France). G418 (250 µg/mL, InvivoGen, San Diego, CA, USA) and Hygromycin B Gold (50 µg/mL, InvivoGen, San Diego, CA, USA) were also added to the culture medium as selection antibiotics. CAKI 2, LNCap, PC-3, and MDA-MB-231 cells were purchased from the European Collection of Authenticated Cell Cultures (ECACC) and cultured according to the provided protocol.
For the analysis of biological activity of the analyzed compounds, an immune checkpoint blockade (ICB) assay was performed. For this, the culture of Jurkat effector cells (Jurkat-ECs) and […] was carried out. The assay was performed according to the protocol described in our previous works. All the experiments were performed three times as independent experiments.
Figure 2 Bioactivity of the indicated compounds. (A,B) The activity was monitored with a cell-based immune checkpoint blockade (ICB) assay. Jurkat ECs were contacted with pre-seeded CHO/TCRAct/PD-L1 cells in the presence of the indicated concentrations of the compounds (A) or durvalumab (B) as a positive control. The cells were co-cultured for 6 h and the luminescence signal was measured following the addition of the Bio-Glo substrate. The graphs show fold induction calculated versus either DMSO-treated (for small molecules) or untreated (for durvalumab) control (ctrl) cells. The results are mean ± SD from three independent experiments. […] (C) Analysis of the expression of PD-L1 in four human cancer cell lines compared to PD-L1-overexpressing CHO/TCRAct/PD-L1 cells. (D) Analysis of the expression of PD-L1 in MDA-MB-231 cells treated with either 4 or 5 compounds for 6 or 24 h.

Row | Protein precipitation during NMR titration (PD-L1 protein) | inhibition at 0.5 µM (PD-1/PD-L1 complex) [%] | inhibition at 5 µM (PD-1/PD-L1 complex) [%] | IC50 (PD-1/PD-L1 complex; six ligand concentrations, two dilution series) [nM] | Compound | HTRF: Percentage of the Dissociated PD-1/PD-L1 Complex, 0.5 µM Ligand Conc. (PD-1/PD-L1 complex) [%] | HTRF: Percentage of the Dissociated PD-1/PD-L1 Complex, 5 µM Ligand Conc. (PD-1/PD-L1 complex) [%] | Promega Assay (active / not active) [1] | Activation of Jurkat ECs in the ICB assay ([1]; 6 h co-culture, fold induction vs control)
1 | not observed |  |  |  | Cc1c(COc2cc(OCc3cccc(C#N)c3)c(CN3C[C@H](O)C[C@@H]3C(=O)O)cc2Cl)cccc1-c1ccc2c(c1)OCCO2 [BMS-1166, reference compound] | 100 | 100 |  | 
2 |  | 23.7 | 68.3 |  | Cc1c(COc2cc(OCc3cccc(C#N)c3)c(CN3C[C@H](O)C[C@@H]3C(=O)NCC3CCN(CC(=O)Nc4cccc5c4C(=O)N(C4CCC(=O)NC4=O)C5=O)CC3)cc2Cl)cccc1-c1ccc2c(c1)OCCO2 (stereo partly drawn) [compound 1, (2R,4R)-1-(5-chloro-2-((3-cyanobenzyl)oxy)-4-((3-(2,3-dihydrobenzo[b][1,4]dioxin-6-yl)-2-methylbenzyl)oxy)benzyl)-N-((1-(2-((2-(2,6-dioxopiperidin-3-yl)-1,3-dioxoisoindolin-4-yl)amino)-2-oxoethyl)piperidin-4-yl)methyl)-4-hydroxypyrrolidine-2-carboxamide] |  |  | Not active | 
3 |  | 3.9 | 71.7 |  | Cc1c(COc2cc(OCc3cccc(C#N)c3)c(CN3C[C@H](O)C[C@@H]3C(=O)NCCCNc3cccc4c3C(=O)N(C3CCC(=O)NC3=O)C4=O)cc2Cl)cccc1-c1ccc2c(c1)OCCO2 (stereo partly drawn) [compound 2, (2R,4R)-1-(5-chloro-2-((3-cyanobenzyl)oxy)-4-((3-(2,3-dihydrobenzo[b][1,4]dioxin-6-yl)-2-methylbenzyl)oxy)benzyl)-N-(3-((2-(2,6-dioxopiperidin-3-yl)-1,3-dioxoisoindolin-4yl)amino)propyl)-4-hydroxypyrrolidine-2-carboxamide] |  |  | Not active | 
4 |  | 77.8 | 97.1 | 60 ± 2 | Cc1c(COc2cc(OCc3cccc(C#N)c3)c(CNCC3CCN(CC(=O)Nc4cccc5c4C(=O)N(C4CCC(=O)NC4=O)C5=O)CC3)cc2Cl)cccc1-c1ccc2c(c1)OCCO2 (centres unmarked) [compound 3, 2-(4-(((5-chloro-2-((3-cyanobenzyl)oxy)-4-((3-(2,3-dihydrobenzo[b][1,4]dioxin-6-yl)-2-methylbenzyl)oxy)benzyl)amino)methyl)piperidin-1-yl)-N-(2-(2,6-dioxopiperidin-3-yl)-1,3-dioxoisoindolin-4-yl)acetamide] |  |  | Not active | 
5 |  | 0 | 35.2 |  | COc1nc(OCc2cccc(-c3ccccc3)c2C)ccc1C(NCCCNc1cccc2c1C(=O)N(C1CCC(=O)NC1=O)C2=O)c1nnnn1C(C)(C)C (centres unmarked) [compound 7, 4-((3-(((1-(tert-butyl)-1H-tetrazol-5-yl)(2-methoxy-6-((2-methyl-[1,1′-biphenyl]-3-yl)methoxy)pyridin-3-yl)methyl)amino)propyl)amino)-2-(2,6-dioxopiperidin-3-yl)isoindoline-1,3-dione] |  |  | Not active | 
6 |  | 29.4 | 60.6 |  | COc1cc(-c2cccc(-c3ccc4c(c3)OCCO4)c2Cl)ccc1COC(=O)CCC(=O)N1CCN(c2cccc3c2C(=O)N(C2CCC(=O)NC2=O)C3=O)CC1 (centres unmarked) [compound 10, (3′-(benzo-1,4-dioxan-6-yl)-2′-chloro-3-methoxy-[1,1′-biphenyl]-4-yl)methyl 4-(4-(2-(2,6-dioxopiperidin-3-yl)-1,3-dioxoisoindolin-4-yl)piperazin-1-yl)-4-oxobutanoate] |  |  | Not active | 
7 |  | 26.3 | 40 |  | COc1cc(-c2cccc(-c3ccc4c(c3)OCCO4)c2Cl)ccc1COC(=O)CCCC(=O)N1CCN(c2cccc3c2C(=O)N(C2CCC(=O)NC2=O)C3=O)CC1 (centres unmarked) [compound 11] |  |  | Not active | 
8 |  | 40.9 | 76.3 |  | Cc1c(COc2ccc3nc(CNC(=O)CCCC(=O)Nc4cccc5c4C(=O)N(C4CCC(=O)NC4=O)C5=O)c(NCc4cccc(C#N)c4)n3c2)cccc1-c1ccc(F)cc1 (centres unmarked) [compound 12, N1-((3-((3-cyanobenzyl)amino)-6-((4′-fluoro-2-methyl-[1,1′-biphenyl]-3-yl)methoxy)imidazo [1,2-a]pyridin-2-yl)methyl)-N5-(2-(2,6-dioxopiperidin-3-yl)-1,3-dioxoisoindolin-4-yl)glutaramide] |  |  | Not active | 
9 |  |  |  |  | N1-(2-(2,6-dioxopiperidin-3-yl)-1,3-dioxoisoindolin-4-yl)-N5-((6-((2-methyl-[1,1′-biphenyl]-3-yl)methoxy)-3-((1-phenylethyl)amino)imidazo [1,2-a]pyridin-2-yl)methyl)glutaramide [compound 13] | 30.4 | 31.1 | Not active | 
10 |  |  |  |  | durvalumab |  |  |  | increase the activation of Jurkat ECs
